Measurements published in the NIST ThermoML archive (doi:10.1016/j.jct.2019.02.011).

Assay: xn = mol fraction of the nth substance listed
Details: Liquid, Vibrating tube method

COC(=O)OC [dimethyl carbonate] + CCO
mass density [kg/m3]
Details | 100 kPa | 5000 kPa | 10000 kPa | 15000 kPa | 20000 kPa | 25000 kPa | 30000 kPa | 35000 kPa | 40000 kPa
288.15 K, x1 = 0.0252 | 804.2 | 808 | 812.06 | 815.89 | 819.61 | 822.92 | 826.21 | 829.16 | 832.33
288.15 K, x1 = 0.0506 | 813.67 | 817.57 | 821.64 | 825.53 | 829.25 | 832.61 | 835.95 | 838.9 | 842.19
288.15 K, x1 = 0.0757 | 823.01 | 826.96 | 831.04 | 834.98 | 838.69 | 842.06 | 845.41 | 848.42 | 851.7
288.15 K, x1 = 0.1003 | 831.96 | 835.91 | 839.99 | 843.94 | 847.7 | 851.08 | 854.48 | 857.54 | 860.78
288.15 K, x1 = 0.1508 | 849.93 | 853.94 | 858.08 | 862.04 | 865.84 | 869.28 | 872.69 | 875.76 | 879.06
288.15 K, x1 = 0.2 | 866.84 | 870.91 | 875.1 | 879.08 | 882.88 | 886.33 | 889.8 | 892.93 | 896.24
288.15 K, x1 = 0.2547 | 885.11 | 889.19 | 893.38 | 897.43 | 901.27 | 904.73 | 908.21 | 911.35 | 914.67
288.15 K, x1 = 0.3002 | 899.9 | 903.99 | 908.19 | 912.25 | 916.09 | 919.56 | 923.05 | 926.24 | 929.57
288.15 K, x1 = 0.3498 | 915.51 | 919.65 | 923.86 | 927.88 | 931.71 | 935.24 | 938.74 | 941.95 | 945.28
288.15 K, x1 = 0.4 | 930.78 | 934.94 | 939.15 | 943.23 | 947.06 | 950.6 | 954.16 | 957.37 | 960.71
288.15 K, x1 = 0.449 | 945.14 | 949.35 | 953.57 | 957.66 | 961.48 | 965.03 | 968.6 | 971.87 | 975.22
288.15 K, x1 = 0.4996 | 959.51 | 963.73 | 967.96 | 972.06 | 975.93 | 979.49 | 983.06 | 986.34 | 989.7
288.15 K, x1 = 0.5507 | 973.56 | 977.78 | 982.01 | 986.13 | 989.99 | 993.56 | 997.14 | 1000.43 | 1003.8
288.15 K, x1 = 0.6005 | 986.73 | 990.95 | 995.19 | 999.32 | 1003.17 | 1006.8 | 1010.39 | 1013.69 | 1017.06
288.15 K, x1 = 0.6455 | 998.17 | 1002.45 | 1006.64 | 1010.83 | 1014.68 | 1018.32 | 1021.92 | 1025.22 | 1028.6
288.15 K, x1 = 0.6931 | 1009.92 | 1014.21 | 1018.41 | 1022.55 | 1026.4 | 1030.05 | 1033.65 | 1037.01 | 1040.4
288.15 K, x1 = 0.7502 | 1023.43 | 1027.72 | 1031.92 | 1036.08 | 1039.92 | 1043.58 | 1047.24 | 1050.61 | 1054
288.15 K, x1 = 0.8009 | 1035 | 1039.3 | 1043.51 | 1047.68 | 1051.52 | 1055.18 | 1058.85 | 1062.22 | 1065.62
288.15 K, x1 = 0.8505 | 1046 | 1050.3 | 1054.51 | 1058.68 | 1062.52 | 1066.19 | 1069.82 | 1073.25 | 1076.6
288.15 K, x1 = 0.9008 | 1056.7 | 1061.01 | 1065.22 | 1069.4 | 1073.24 | 1076.92 | 1080.55 | 1083.98 | 1087.34
288.15 K, x1 = 0.9255 | 1061.81 | 1066.14 | 1070.35 | 1074.54 | 1078.38 | 1082.06 | 1085.69 | 1089.13 | 1092.49
288.15 K, x1 = 0.9477 | 1066.36 | 1070.68 | 1074.89 | 1079.08 | 1082.92 | 1086.6 | 1090.23 | 1093.68 | 1097.04
288.15 K, x1 = 0.9735 | 1071.55 | 1075.89 | 1080.08 | 1084.28 | 1088.11 | 1091.79 | 1095.43 | 1098.88 | 1102.23
288.15 K, x1 = 1 | 1076.83 | 1081.15 | 1085.32 | 1089.52 | 1093.35 | 1096.99 | 1100.63 | 1104.08 | 1107.4
293.15 K, x1 = 0.0252 | 799.52 | 803.53 | 807.63 | – | – | – | – | – | –
293.15 K, x1 = 0.0506 | 808.93 | 813.04 | 817.2 | – | – | – | – | – | –
293.15 K, x1 = 0.0757 | 818.21 | 822.32 | 826.48 | – | – | – | – | – | –
293.15 K, x1 = 0.1003 | 827.05 | 831.21 | 835.37 | – | – | – | – | – | –
293.15 K, x1 = 0.1508 | 844.9 | 849.11 | 853.32 | – | – | – | – | – | –
293.15 K, x1 = 0.2 | 861.69 | 865.96 | 870.22 | – | – | – | – | – | –
293.15 K, x1 = 0.2547 | 879.83 | 884.11 | – | – | – | – | – | – | –
293.15 K, x1 = 0.3002 | 894.46 | 898.79 | – | – | – | – | – | – | –
293.15 K, x1 = 0.3498 | 909.95 | 914.32 | – | – | – | – | – | – | –
293.15 K, x1 = 0.4 | 925.11 | 929.49 | – | – | – | – | – | – | –
293.15 K, x1 = 0.449 | 939.35 | 943.78 | – | – | – | – | – | – | –
293.15 K, x1 = 0.4996 | 953.6 | 958.04 | – | – | – | – | – | – | –
293.15 K, x1 = 0.5507 | 967.53 | 971.96 | – | – | – | – | – | – | –
293.15 K, x1 = 0.6005 | 980.58 | 985.07 | – | – | – | – | – | – | –
293.15 K, x1 = 0.6455 | 991.96 | 996.45 | – | – | – | – | – | – | –
293.15 K, x1 = 0.6931 | 1003.6 | 1008.14 | – | – | – | – | – | – | –
293.15 K, x1 = 0.7502 | 1017.03 | 1021.58 | – | – | – | – | – | – | –
293.15 K, x1 = 0.8009 | 1028.54 | 1033.09 | – | – | – | – | – | – | –
293.15 K, x1 = 0.8505 | 1039.42 | 1043.97 | – | – | – | – | – | – | –
293.15 K, x1 = 0.9008 | 1050.05 | 1054.61 | – | – | – | – | – | – | –
293.15 K, x1 = 0.9255 | 1055.15 | 1059.71 | – | – | – | – | – | – | –
293.15 K, x1 = 0.9477 | 1059.65 | 1064.21 | – | – | – | – | – | – | –
293.15 K, x1 = 0.9735 | 1064.83 | 1069.39 | – | – | – | – | – | – | –
293.15 K, x1 = 1 | 1070.06 | 1074.62 | – | – | – | – | – | – | –
